20 molecules from ChEMBL document CHEMBL3414495, “Multi-target tacrine-coumarin hybrids: cholinesterase and monoamine oxidase B inhibition properties against Alzheimer's disease” (Eur J Med Chem, 2015) can be followed below.

SMILES strings stand for the structures. A value given as a limit tells only on which side of the number the result lay.

As usually defined, the IC50 is the midpoint of a concentration-inhibition curve. As a reminder, the Papp is the rate of passage across a membrane or cell layer, normalised by area and donor concentration. High values mean ready permeation, low ones poor permeation.

Data set [1] addresses Acetylcholinesterase (Electrophorus electricus, UniProt O42275).
Description: Inhibition of electric eel AChE using acetylthiocholine iodide as substrate incubated for 6 mins prior to substrate addition measured after 60 to 180 secs by Ellman method
Data set [2] deals with T1, Amine oxidase [flavin-containing] A (Homo sapiens, UniProt P21397).
T1 sequence (P21397 whole entry): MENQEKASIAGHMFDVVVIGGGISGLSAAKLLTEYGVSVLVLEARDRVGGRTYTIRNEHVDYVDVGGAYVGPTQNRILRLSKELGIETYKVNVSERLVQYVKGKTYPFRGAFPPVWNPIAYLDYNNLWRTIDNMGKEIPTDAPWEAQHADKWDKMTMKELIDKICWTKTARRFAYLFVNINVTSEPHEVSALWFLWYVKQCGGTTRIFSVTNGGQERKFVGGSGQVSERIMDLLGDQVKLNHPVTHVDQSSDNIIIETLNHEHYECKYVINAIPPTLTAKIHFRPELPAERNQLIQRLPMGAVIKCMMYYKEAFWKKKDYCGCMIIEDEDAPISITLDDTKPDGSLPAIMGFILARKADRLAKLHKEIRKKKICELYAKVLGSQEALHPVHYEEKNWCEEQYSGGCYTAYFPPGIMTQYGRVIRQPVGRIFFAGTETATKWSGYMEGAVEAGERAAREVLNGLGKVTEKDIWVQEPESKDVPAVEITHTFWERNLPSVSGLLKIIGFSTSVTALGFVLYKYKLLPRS
Nature of the data set: Inhibition of human MAO-A using p-tyramine as substrate assessed as H2O2 production at 100 uM by amplex red assay.

The next data set can be described thus: in vitro. To be noted: PAMPA. (The PAMPA barrier holds no transporters, so it reflects passive diffusion.)
The species named for a further data set is Homo sapiens. Nature of the data set: Selectivity index, ratio of IC50 for human MAO-A to IC50 for human MAO-B.
Data set [3] has as its target Cholinesterase (Equus caballus, UniProt P81908).
Description: Inhibition of horse serum BuChE using S-butyrylthiocholine iodide as substrate incubated for 6 mins prior to substrate addition measured after 60 to 180 secs by Ellman method
Data set [4] has as its target T2, Amine oxidase [flavin-containing] B (Homo sapiens, UniProt P27338).
T2 sequence (P27338 whole entry): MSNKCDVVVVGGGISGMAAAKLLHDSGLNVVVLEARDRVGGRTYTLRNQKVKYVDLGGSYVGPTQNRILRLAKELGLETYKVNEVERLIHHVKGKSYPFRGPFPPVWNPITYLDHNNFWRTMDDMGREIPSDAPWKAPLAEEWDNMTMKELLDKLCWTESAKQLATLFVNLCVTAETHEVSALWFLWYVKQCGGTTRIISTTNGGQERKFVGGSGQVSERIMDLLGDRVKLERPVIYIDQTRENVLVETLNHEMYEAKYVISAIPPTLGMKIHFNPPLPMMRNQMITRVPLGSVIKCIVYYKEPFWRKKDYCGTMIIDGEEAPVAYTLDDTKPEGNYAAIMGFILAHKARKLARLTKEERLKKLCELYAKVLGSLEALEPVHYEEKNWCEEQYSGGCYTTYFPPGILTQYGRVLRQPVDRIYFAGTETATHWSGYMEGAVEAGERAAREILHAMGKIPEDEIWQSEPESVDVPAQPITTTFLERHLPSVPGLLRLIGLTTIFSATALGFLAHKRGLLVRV
Description: Inhibition of human MAO-B using p-tyramine as substrate assessed as H2O2 production by amplex red assay

The target in data set [5] is T1, Amine oxidase [flavin-containing] A. Nature of the data set: Inhibition of human MAO-A using p-tyramine as substrate assessed as H2O2 production by amplex red assay.
For data set [6] the target is unchanged. Kind of data set: Inhibition of human MAO-A using p-tyramine as substrate assessed as H2O2 production at 200 uM by amplex red assay.
In data set [7] the target is T2, Amine oxidase [flavin-containing] B. Kind of data set: Inhibition of MAO-B (unknown origin).
Data set [8] has the same target. Kind of data set: Inhibition of human MAO-B using p-tyramine as substrate assessed as H2O2 production at 200 uM by amplex red assay.
In data set [9] the target is Acetylcholinesterase (Homo sapiens, UniProt P22303). Nature of the data set: Inhibition of human AChE using acetylthiocholine iodide as substrate incubated for 6 mins prior to substrate addition measured after 60 to 180 secs by Ellman method. A general note: DTNB colorimetry detects thiols as they appear.
The target in data set [10] is Cholinesterase (Homo sapiens, UniProt P06276). Nature of the data set: Inhibition of human BuChE using S-butyrylthiocholine iodide as substrate incubated for 6 mins prior to substrate addition measured after 60 to 180 secs by Ellman method.
Cholinesterase (Homo sapiens, UniProt P06276), sequence (P06276 whole entry): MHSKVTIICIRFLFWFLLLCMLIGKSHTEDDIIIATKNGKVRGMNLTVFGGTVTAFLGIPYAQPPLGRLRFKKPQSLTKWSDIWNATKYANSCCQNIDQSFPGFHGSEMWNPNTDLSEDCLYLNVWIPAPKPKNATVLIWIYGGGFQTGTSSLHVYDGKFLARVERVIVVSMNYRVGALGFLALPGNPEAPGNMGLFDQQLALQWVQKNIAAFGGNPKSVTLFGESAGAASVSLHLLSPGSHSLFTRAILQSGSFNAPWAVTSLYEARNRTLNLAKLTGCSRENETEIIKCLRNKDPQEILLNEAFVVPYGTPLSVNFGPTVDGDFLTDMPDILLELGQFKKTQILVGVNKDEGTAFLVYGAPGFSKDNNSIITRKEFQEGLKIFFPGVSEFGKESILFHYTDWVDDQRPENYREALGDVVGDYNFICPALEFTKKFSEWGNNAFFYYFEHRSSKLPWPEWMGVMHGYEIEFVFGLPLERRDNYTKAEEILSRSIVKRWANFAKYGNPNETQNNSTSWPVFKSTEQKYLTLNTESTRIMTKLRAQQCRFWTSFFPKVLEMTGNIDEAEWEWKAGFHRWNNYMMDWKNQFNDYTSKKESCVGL

Cholinesterase (Equus caballus, UniProt P81908), sequence (P81908 whole entry): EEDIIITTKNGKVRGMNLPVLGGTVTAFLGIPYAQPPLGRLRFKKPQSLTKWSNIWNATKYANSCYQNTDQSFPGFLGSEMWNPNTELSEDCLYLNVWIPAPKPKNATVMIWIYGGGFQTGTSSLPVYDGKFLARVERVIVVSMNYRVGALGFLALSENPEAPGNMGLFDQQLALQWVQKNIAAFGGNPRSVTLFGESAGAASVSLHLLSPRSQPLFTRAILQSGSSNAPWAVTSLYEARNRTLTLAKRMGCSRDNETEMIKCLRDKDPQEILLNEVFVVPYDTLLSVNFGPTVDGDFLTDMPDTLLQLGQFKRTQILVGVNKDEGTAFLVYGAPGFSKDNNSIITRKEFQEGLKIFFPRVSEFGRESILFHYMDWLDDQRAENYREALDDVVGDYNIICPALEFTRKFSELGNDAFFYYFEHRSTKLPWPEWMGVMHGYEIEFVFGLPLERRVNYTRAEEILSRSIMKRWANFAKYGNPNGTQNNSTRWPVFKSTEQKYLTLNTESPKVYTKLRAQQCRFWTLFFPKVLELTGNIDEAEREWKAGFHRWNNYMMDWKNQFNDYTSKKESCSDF
Acetylcholinesterase (Electrophorus electricus, UniProt O42275), sequence (O42275 whole entry): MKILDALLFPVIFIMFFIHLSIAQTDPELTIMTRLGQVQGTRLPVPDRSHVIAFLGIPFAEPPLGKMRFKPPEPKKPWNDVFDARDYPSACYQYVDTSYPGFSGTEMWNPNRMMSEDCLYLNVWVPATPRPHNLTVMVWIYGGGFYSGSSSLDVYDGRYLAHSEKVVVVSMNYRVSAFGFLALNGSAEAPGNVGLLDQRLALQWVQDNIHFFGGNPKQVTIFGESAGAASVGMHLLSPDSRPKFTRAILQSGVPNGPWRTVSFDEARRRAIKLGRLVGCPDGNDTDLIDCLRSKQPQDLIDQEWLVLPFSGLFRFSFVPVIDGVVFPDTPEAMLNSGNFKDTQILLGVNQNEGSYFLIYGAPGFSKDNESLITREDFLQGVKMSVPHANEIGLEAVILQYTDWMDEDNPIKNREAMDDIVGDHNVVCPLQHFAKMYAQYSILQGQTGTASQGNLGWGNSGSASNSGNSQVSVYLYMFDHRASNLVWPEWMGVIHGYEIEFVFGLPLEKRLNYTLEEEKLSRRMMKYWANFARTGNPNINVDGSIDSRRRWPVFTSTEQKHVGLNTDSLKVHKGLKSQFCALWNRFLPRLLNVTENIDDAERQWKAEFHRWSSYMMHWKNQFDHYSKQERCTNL
Acetylcholinesterase (Homo sapiens, UniProt P22303), sequence (P22303 whole entry): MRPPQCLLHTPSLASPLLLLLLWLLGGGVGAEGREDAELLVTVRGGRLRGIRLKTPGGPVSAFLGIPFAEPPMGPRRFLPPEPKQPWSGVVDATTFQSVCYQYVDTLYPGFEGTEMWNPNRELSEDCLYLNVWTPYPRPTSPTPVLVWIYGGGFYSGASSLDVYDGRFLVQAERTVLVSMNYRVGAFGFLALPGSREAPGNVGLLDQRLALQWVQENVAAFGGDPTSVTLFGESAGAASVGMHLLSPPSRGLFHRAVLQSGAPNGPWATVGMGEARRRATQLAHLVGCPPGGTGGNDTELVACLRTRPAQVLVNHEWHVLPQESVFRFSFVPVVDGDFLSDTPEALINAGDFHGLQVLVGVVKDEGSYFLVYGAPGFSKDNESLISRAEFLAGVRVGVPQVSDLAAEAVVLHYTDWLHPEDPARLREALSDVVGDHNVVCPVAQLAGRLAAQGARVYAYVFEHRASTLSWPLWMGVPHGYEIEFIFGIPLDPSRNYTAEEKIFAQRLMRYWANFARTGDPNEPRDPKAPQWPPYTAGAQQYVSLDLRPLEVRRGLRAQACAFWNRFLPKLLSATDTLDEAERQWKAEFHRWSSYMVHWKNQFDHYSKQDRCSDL
Description for in vitro: Permeability of the compound after 16 hrs by PAMPA

Regarding `COc1cc(=O)oc2cc(OCCN3CCN(CCCNc4c5c(nc6ccccc46)CCCC5)CC3)ccc12`, the IC50 on Acetylcholinesterase [1] stood at 44.7 nM; at Cholinesterase [3], 116 nM; in data set [4], 5770 nM. For the same molecule, the “inhibition (INH)” value in [2] is recorded as “Not Active”. In “in vitro”, this molecule came in with a Papp at 16 h of 1.96 ×10⁻⁶ cm/s. Besides, in the data set listed under Homo sapiens, the Ratio IC50 is > 17.3.

For the molecule `Cc1cc(=O)oc2cc(OCCN3CCN(CCCNc4c5c(nc6ccccc46)CCCC5)CC3)ccc12`, the IC50 at Acetylcholinesterase [1] was determined as 39.1 nM; against Cholinesterase [3], 50.8 nM; in data set [4] it was 1770 nM; in data set [5] it was 66700 nM. The molecule further yielded a Papp at 16 h in “in vitro” of 1.9 ×10⁻⁶ cm/s. The Ratio IC50 in the data set listed under Homo sapiens came out at 37.7.

`O=c1ccc2ccc(OCCN3CCN(CCNc4c5c(nc6ccccc46)CCCC5)CC3)cc2o1`: the IC50 at Acetylcholinesterase [1] was found to be 69.4 nM; at Cholinesterase [3] it was 43.4 nM; in data set [4] it was 4560 nM. The same molecule registered a Papp at 16 h in the data set “in vitro” of 2.13 ×10⁻⁶ cm/s. The Ratio IC50 in the data set filed under Homo sapiens is > 43.9. The “inhibition (INH)” value in data set [6] is “Not Active”.

With `O=c1ccc2ccc(OCCCN3CCN(CCCNc4c5c(nc6ccccc46)CCCC5)CC3)cc2o1`, the IC50 was 24.2 nM against Acetylcholinesterase [1], 31.6 nM at Cholinesterase [3] and 2260 nM in data set [4]. The Papp at 16 h in “in vitro” was found to be 1.45 ×10⁻⁶ cm/s. For the same molecule, in the data set filed under Homo sapiens, the Ratio IC50 was > 88.5. Moreover, the “inhibition (INH)” value in data set [6] is “Not Active”.

Turning to `Nc1cc(=O)oc2cc(OCCN3CCN(CCCNc4c5c(nc6ccccc46)CCCC5)CC3)ccc12`, the IC50 against Acetylcholinesterase [1] was 38.7 nM; against Cholinesterase [3] it was 70.7 nM; in data set [4], 38000 nM. Moreover, in [2], the “inhibition (INH)” value is on record as “Not Active”. In “in vitro”, this molecule showed a Papp at 16 h of 0.78 ×10⁻⁶ cm/s. In addition, in the data set listed under Homo sapiens, the Ratio IC50 is > 2.63.

On to `O=c1ccc2ccc(OCCCCN3CCN(CCNc4c5c(nc6ccccc46)CCCC5)CC3)cc2o1`, for which the results for the IC50 (on Acetylcholinesterase [1]; at Cholinesterase [3]; in [4]) were 92.1 nM, 20.9 nM and 780 nM, respectively. In “in vitro”, this molecule displayed a Papp at 16 h of 5.23 ×10⁻⁶ cm/s. Moreover, the Ratio IC50 in the data set filed under Homo sapiens was > 256. The “inhibition (INH)” value in data set [6] is “Not Active”.

On to `CCOc1cc(=O)oc2cc(OCCN3CCN(CCCNc4c5c(nc6ccccc46)CCCC5)CC3)ccc12`, for which the IC50 is 51.1 nM against Acetylcholinesterase [1], 86.6 nM at Cholinesterase [3], 25700 nM in data set [4] and 78600 nM in [5]. In “in vitro”, this molecule came in with an apparent permeability coefficient (Papp) at 16 h of 2.74 ×10⁻⁶ cm/s. In addition, the Ratio IC50 in the data set filed under Homo sapiens was found to be 3.05.

Consider `Cc1cc2ccc(OCCN3CCN(CCCNc4c5c(nc6ccccc46)CCCC5)CC3)cc2oc1=O`, for which the IC50 against Acetylcholinesterase [1] was determined as 56.6 nM; against Cholinesterase [3] it was 55 nM; in data set [4], 540 nM. Further, in [2], the “inhibition (INH)” value was “Not Active”. The molecule further gave a Papp at 16 h in “in vitro” of 2.95 ×10⁻⁶ cm/s. Besides, the Ratio IC50 in the data set listed under Homo sapiens was > 185.

As for `O=c1oc2cc(OCCN3CCN(CCCNc4c5c(nc6ccccc46)CCCC5)CC3)ccc2c2c1CCCC2`, the IC50 stood at 144 nM at Acetylcholinesterase [1], 159 nM against Cholinesterase [3], 1520 nM in data set [4] and 22000 nM in data set [5]. Also, in the data set “in vitro”, the Papp at 16 h is 3.01 ×10⁻⁶ cm/s. In the data set filed under Homo sapiens, the Ratio IC50 was found to be 14.4.

With `O=c1ccc2ccc(OCCCCCCN3CCN(CCNc4c5c(nc6ccccc46)CCCC5)CC3)cc2o1`, the IC50 is 330 nM against Acetylcholinesterase [1], 58.6 nM at Cholinesterase [3], 5280 nM in data set [4] and 6020 nM in data set [5]. This molecule also registered a Papp at 16 h in the data set “in vitro” of 6.96 ×10⁻⁶ cm/s. For the same molecule, in the data set filed under Homo sapiens, the Ratio IC50 is 1.14.

On to `O=c1ccc2ccc(OCCN3CCN(CCCNc4c5c(nc6ccccc46)CCCC5)CC3)cc2o1`, for which the IC50 at Acetylcholinesterase [1] was 17.7 nM; against Cholinesterase [3], 38 nM; in data set [4], 2000 nM. This molecule also showed a Papp at 16 h in the data set “in vitro” of 1.21 ×10⁻⁶ cm/s. For the same molecule, the Ratio IC50 in the data set listed under Homo sapiens was > 100. Moreover, the “inhibition (INH)” value in data set [6] was “Not Active”.

For `Cc1c(C)c2ccc(OCc3nnc(C(C)C)s3)cc2oc1=O` [ATIBEPRONE], half-maximal inhibition in [7] (IC50) required 0.9 nM.

For the molecule `O=c1cc(-c2ccccc2)c2ccc(OCCN3CCN(CCCNc4c5c(nc6ccccc46)CCCC5)CC3)cc2o1`, the IC50 against Acetylcholinesterase [1] came to 195 nM; at Cholinesterase [3], 216 nM. In addition, the “inhibition (INH)” value in data set [2] and in [8] was “Not Active” in each case. For the same molecule, in the data set “in vitro”, the Papp at 16 h was found to be 7.59 ×10⁻⁶ cm/s.

As to `O=c1ccc2ccc(OCCCCCN3CCN(CCNc4c5c(nc6ccccc46)CCCC5)CC3)cc2o1`, the IC50 came out at 139 nM against Acetylcholinesterase [1], 32.2 nM on Cholinesterase [3], 1590 nM in data set [4] and 9180 nM in [5]. Further, the apparent permeability coefficient (Papp) at 16 h in the data set “in vitro” is 6.5 ×10⁻⁶ cm/s. Besides, the Ratio IC50 in the data set filed under Homo sapiens worked out at 5.77.

As for `O=c1ccc2ccc(OCCCCCCN3CCN(CCCNc4c5c(nc6ccccc46)CCCC5)CC3)cc2o1`, the IC50 is 66.2 nM against Acetylcholinesterase [1], 38.5 nM on Cholinesterase [3], 9510 nM in [4] and 6050 nM in data set [5]. In addition, the Papp at 16 h in “in vitro” amounted to 3.4 ×10⁻⁶ cm/s. In the data set listed under Homo sapiens, the Ratio IC50 came out at 0.64.

In the case of `Cc1c(Cl)c(=O)oc2cc(OCCN3CCN(CCCNc4c5c(nc6ccccc46)CCCC5)CC3)ccc12`, the IC50 came to 31.9 nM on Acetylcholinesterase [1]; 24.4 nM at Acetylcholinesterase [9]; 72.6 nM on Cholinesterase [3]; 700 nM in [4]; 124 nM against Cholinesterase [10]; 53100 nM in [5]. The same molecule came in with a Papp at 16 h in the data set “in vitro” of 5.37 ×10⁻⁶ cm/s. Besides, the Ratio IC50 in the data set listed under Homo sapiens came to 75.7.

In the case of `O=c1ccc2ccc(OCCCCN3CCN(CCCNc4c5c(nc6ccccc46)CCCC5)CC3)cc2o1`, the IC50 against Acetylcholinesterase [1] was 36 nM; against Cholinesterase [3] it was 23 nM; in [4], 3450 nM. Further, the Papp at 16 h in the data set “in vitro” is 2.04 ×10⁻⁶ cm/s. Also, the Ratio IC50 in the data set listed under Homo sapiens is > 58. The “inhibition (INH)” value in data set [6] was “Not Active”.

Turning to `O=c1cc(C(F)(F)F)c2ccc(OCCN3CCN(CCCNc4c5c(nc6ccccc46)CCCC5)CC3)cc2o1`, the IC50 amounted to 67 nM against Acetylcholinesterase [1], 149 nM against Cholinesterase [3] and 28800 nM in [4]. In addition, the “inhibition (INH)” value in [2] is given as “Not Active”. The same molecule yielded a Papp at 16 h in the data set “in vitro” of 5.58 ×10⁻⁶ cm/s. Also, the Ratio IC50 in the data set filed under Homo sapiens is > 3.48.

`O=c1ccc2ccc(OCCCCCN3CCN(CCCNc4c5c(nc6ccccc46)CCCC5)CC3)cc2o1`: the IC50 turned out to be 48.4 nM against Acetylcholinesterase [1], 41.8 nM against Cholinesterase [3], 2290 nM in [4] and 10300 nM in [5]. Also, the Papp at 16 h in the data set “in vitro” came out at 2.37 ×10⁻⁶ cm/s. Also, in the data set listed under Homo sapiens, the Ratio IC50 was found to be 4.52.

For the molecule `O=c1ccc2ccc(OCCCN3CCN(CCNc4c5c(nc6ccccc46)CCCC5)CC3)cc2o1`, the IC50 at Acetylcholinesterase [1] worked out at 48.4 nM; on Cholinesterase [3], 16.1 nM; in data set [4], 2370 nM. The Papp at 16 h in “in vitro” came to 3.43 ×10⁻⁶ cm/s. Moreover, the Ratio IC50 in the data set listed under Homo sapiens is > 84.4. Also, the “inhibition (INH)” value in [6] is on record as “Not Active”.
